Assay results from ChEMBL document CHEMBL3864164, “II. Discovery of a novel series of CXCR3 antagonists with a beta amino acid core” (Bioorg Med Chem Lett, 2016).
In brackets after ≈: the same amount, converted by molar mass.

Key:
[1] = Drug degradation in solid phase after few months; format: physicochemical; conditions: read-out: Drug degradation
[2] = Solubility of the compound at pH 1.1 to 7.4; format: physicochemical; conditions: buffer
[3] = Absolute oral bioavailability in Balb/c mouse at 10 mg/kg; format: ADME, organism-based; conditions: in vivo

SMILES	degraded [1] [%]	solubility [2] [µM]	bioavailability [3] [%]
CCCN(Cc1ccc(OCCN2C(=O)CCC2=O)c(C)c1)C(c1ccc(Cl)cc1)C1(C(=O)O)CC1 (configuration not stated)	5 to 7	3000 (≈ 1540 µg/mL)	–
COc1cc(CN(CC(C)C)C(CC(=O)O)c2ccc(Cl)c(F)c2)ccc1OCCN1C(=O)CCC1=O (configuration not stated)	5 to 7	3000 (≈ 1610 µg/mL)	–
Cc1cc(CN(C2CCC2)C(CC(=O)O)c2ccc(Cl)cc2)ccc1OCCN1C(=O)CCC1=O (configuration not stated)	5 to 7	3000 (≈ 1500 µg/mL)	–
CCCN(Cc1ccc(OCCN2C(=O)CCC2=O)c(OC)c1)C(CC)c1ccc(Cl)c(C(=O)O)c1 (configuration not stated)	5 to 7	3000 (≈ 1550 µg/mL)	–
COc1cc(CN(CC(C)C)C(CC(=O)O)c2ccc3c(c2)CCO3)ccc1OCCN1C(=O)CCC1=O (configuration not stated)	5 to 7	3000 (≈ 1570 µg/mL)	–
Cc1cc(CN(CC(C)C)C(CC(=O)O)c2ccc(Cl)c(Cl)c2)ccc1OCCN1C(=O)CCC1=O (configuration not stated)	5 to 7	3000 (≈ 1610 µg/mL)	–
COc1cc(CN(CC(C)C)C(CC(=O)O)c2ccc(Cl)cc2Cl)ccc1OCCN1C(=O)CCC1=O (configuration not stated)	5 to 7	3000 (≈ 1650 µg/mL)	–
Cc1cc(CN(CC(C)C)C(CC(=O)O)c2ccc(Cl)c(F)c2)ccc1OCCN1C(=O)CCC1=O (configuration not stated)	5 to 7	3000 (≈ 1560 µg/mL)	–
COc1cc(CN(CC(C)C)C(CC(=O)O)c2ccc(Cl)c(Cl)c2)ccc1OCCN1C(=O)CCC1=O (configuration not stated)	5 to 7	3000 (≈ 1650 µg/mL)	–
CCCN(Cc1ccc(OCCN2C(=O)CCC2=O)c(C)c1)C1c2ccc(Cl)cc2CC1C(=O)O (configuration not stated)	5 to 7	3000 (≈ 1500 µg/mL)	–
CCc1cc(CN(CC2CCCC2)[C@@H](CC(=O)O)c2ccc(Cl)cc2)ccc1OCCN1C(=O)CCC1=O	5 to 7	3000 (≈ 1620 µg/mL)	–
C[C@@H](c1ccc(Cl)cc1)N(Cc1ccc(OCCN2C(=O)CCC2=O)c(C(=O)O)c1)CC1CCCC1	5 to 7	3000 (≈ 1540 µg/mL)	–
CCCN(Cc1ccc(OCCN2C(=O)CCC2=O)c(C)c1)C(CC(=O)O)c1ccc(Cl)s1.Cl (configuration not stated)	5 to 7	3000	–
Cl.O=C(O)C[C@@H](c1ccc(Cl)c(Cl)c1)N(Cc1ccc(OCCN2C(=O)CCC2=O)c(F)c1)CC1CC1	5 to 7	3000	64
Cl.O=C(O)C[C@@H](c1ccc(Cl)c(F)c1)N(Cc1ccc(OCCN2C(=O)CCC2=O)c(Cl)c1)CC1CC1	5 to 7	3000	35
COc1cc(CN(CC2CCCC2)[C@@H](CC(=O)O)c2ccc(Cl)c(F)c2)ccc1OCCN1C(=O)CCC1=O	5 to 7	3000 (≈ 1680 µg/mL)	–
Cc1cc(CN(CC2CCCC2)[C@@H](CC(=O)O)c2ccc(Cl)c(F)c2)ccc1OCCN1C(=O)CCC1=O.Cl	5 to 7	3000	–
CCCN(Cc1ccc(OCCN2C(=O)CCC2=O)c(OC)c1)C(c1ccc(Cl)cc1)C(C)C(=O)O (configuration not stated)	5 to 7	3000 (≈ 1550 µg/mL)	–
Cc1cc(CN(CC(C)C)C(CC(=O)O)c2ccc(Cl)cc2Cl)ccc1OCCN1C(=O)CCC1=O (configuration not stated)	5 to 7	3000 (≈ 1610 µg/mL)	–
COc1cc(CN(CC2CC2)[C@@H](CC(=O)O)c2ccc(Cl)c(F)c2)ccc1OCCN1C(=O)CCC1=O.Cl	5 to 7	3000	5.4
Cl.O=C(O)C[C@@H](c1ccc(Cl)c(F)c1)N(Cc1ccc(OCCN2C(=O)CCC2=O)c(F)c1)CC1CC1	5 to 7	3000	70
CCCN(Cc1ccc(OCCN2C(=O)CCC2=O)c(OC)c1)C(C(=O)O)c1ccc(Cl)cc1 (configuration not stated)	5 to 7	3000 (≈ 1470 µg/mL)	–
Cc1cc(CN(CC(C)C)[C@@H](CC(=O)O)c2ccc(Cl)c(F)c2)ccc1OCCN1C(=O)CCC1=O.Cl	5 to 7	3000	–
Cc1cc(CN(CC(C)C)C(CC(=O)O)c2ccc3c(c2)CCO3)ccc1OCCN1C(=O)CCC1=O (configuration not stated)	5 to 7	3000 (≈ 1530 µg/mL)	–

The next lines start with the values.

degraded [1] [%]	solubility [2] [µM]	bioavailability [3] [%]	SMILES
5 to 7	3000 (≈ 1630 µg/mL)	–	COc1cc(CN(CC(C)C)[C@H](CC(=O)O)c2ccc(Cl)cc2)ccc1OCCn1c(=O)ccn(C)c1=O
5 to 7	3000 (≈ 1500 µg/mL)	–	CCCCN(Cc1ccc(OCCN2C(=O)CCC2=O)c(C)c1)C(CC(=O)O)c1ccc(Cl)cc1 (configuration not stated)
5 to 7	3000 (≈ 1500 µg/mL)	–	CCN(Cc1ccc(OCCn2c(=O)ccn(C)c2=O)c(C)c1)C(CC(=O)O)c1ccc(Cl)cc1 (configuration not stated)
5 to 7	3000 (≈ 1580 µg/mL)	–	Cc1cc(CN(CC2CCCC2)C(CC(=O)O)c2ccc(Cl)cc2)ccc1OCCN1C(=O)CCC1=O (configuration not stated)
5 to 7	3000 (≈ 1650 µg/mL)	–	CCCCN(Cc1ccc(OCCn2c(=O)ccn(C)c2=O)c(OC)c1)C(CC(=O)O)c1ccc2c(c1)CCO2 (configuration not stated)
5 to 7	3000 (≈ 1650 µg/mL)	–	COc1cc(CN(CC2CC2)C(CC(=O)O)c2ccc3c(c2)CCO3)ccc1OCCn1c(=O)ccn(C)c1=O (configuration not stated)
5 to 7	3000 (≈ 1580 µg/mL)	–	Cc1cc(CN(C2CCC2)C(CC(=O)O)c2ccc(Cl)cc2)ccc1OCCn1c(=O)ccn(C)c1=O (configuration not stated)
5 to 7	3000 (≈ 1580 µg/mL)	–	Cc1cc(CN(CC2CC2)C(CC(=O)O)c2ccc(Cl)cc2)ccc1OCCn1c(=O)ccn(C)c1=O (configuration not stated)
5 to 7	3000 (≈ 1550 µg/mL)	–	CCN(Cc1ccc(OCCn2c(=O)ccn(C)c2=O)c(OC)c1)C(CC(=O)O)c1ccc(Cl)cc1 (configuration not stated)
5 to 7	3000 (≈ 1620 µg/mL)	–	Cc1cc(CN(CCC(F)(F)F)C(CC(=O)O)c2ccc(Cl)cc2)ccc1OCCN1C(=O)CCC1=O (configuration not stated)
5 to 7	3000 (≈ 1630 µg/mL)	–	COc1cc(CN(C2CCC2)C(CC(=O)O)c2ccc(Cl)cc2)ccc1OCCn1c(=O)ccn(C)c1=O (configuration not stated)
5 to 7	3000 (≈ 1460 µg/mL)	–	CCCN(Cc1ccc(OCCN2C(=O)CCC2=O)c(C)c1)C(CC(=O)O)c1ccc(Cl)cc1 (configuration not stated)
5 to 7	3000 (≈ 1620 µg/mL)	–	Cc1cc(CN(CC2CCCCC2)C(CC(=O)O)c2ccc(Cl)cc2)ccc1OCCN1C(=O)CCC1=O (configuration not stated)
5 to 7	3000 (≈ 1500 µg/mL)	–	Cc1cc(CN(CC(C)C)[C@@H](CC(=O)O)c2ccc(Cl)cc2)ccc1OCCN1C(=O)CCC1=O
5 to 7	3000 (≈ 1630 µg/mL)	–	COc1cc(CN(CC2CC2)C(CC(=O)O)c2ccc(Cl)cc2)ccc1OCCn1c(=O)ccn(C)c1=O (configuration not stated)
5 to 7	3000 (≈ 1460 µg/mL)	–	CCCN(Cc1ccc(OCCN2C(=O)CCC2=O)c(C)c1)[C@H](CC(=O)O)c1ccc(Cl)cc1

degraded [1] [%]	solubility [2] [µM]	bioavailability [3] [%]	SMILES
5 to 7	3000 (≈ 1550 µg/mL)	–	COc1cc(CN(CC(C)C)C(CC(=O)O)c2ccc(Cl)cc2)ccc1OCCN1C(=O)CCC1=O (configuration not stated)
5 to 7	3000 (≈ 1500 µg/mL)	–	Cc1cc(CN(CC2CC2)[C@@H](CC(=O)O)c2ccc(Cl)cc2)ccc1OCCN1C(=O)CCC1=O
5 to 7	3000 (≈ 1500 µg/mL)	–	Cc1cc(CN(CC(C)C)C(CC(=O)O)c2ccc(Cl)cc2)ccc1OCCN1C(=O)CCC1=O (configuration not stated)
5 to 7	3000 (≈ 1610 µg/mL)	–	CCCN(Cc1ccc(OCCn2c(=O)ccn(C)c2=O)c(OC)c1)C(CC(=O)O)c1ccc2c(c1)CCO2 (configuration not stated)
5 to 7	3000 (≈ 1580 µg/mL)	14	Cc1cc(CN(CC2CCCC2)[C@@H](CC(=O)O)c2ccc(Cl)cc2)ccc1OCCN1C(=O)CCC1=O
5 to 7	3000 (≈ 1460 µg/mL)	–	CCCN(Cc1ccc(OCCN2C(=O)CCC2=O)c(C)c1)[C@@H](CC(=O)O)c1ccc(Cl)cc1
5 to 7	3000 (≈ 1420 µg/mL)	–	CCN(Cc1ccc(OCCN2C(=O)CCC2=O)c(C)c1)C(CC(=O)O)c1ccc(Cl)cc1 (configuration not stated)
5 to 7	3000 (≈ 1540 µg/mL)	–	CCCN(Cc1ccc(OCCn2c(=O)ccn(C)c2=O)c(C)c1)C(CC(=O)O)c1ccc(Cl)cc1 (configuration not stated)
5 to 7	3000 (≈ 1630 µg/mL)	–	CCCCN(Cc1ccc(OCCn2c(=O)ccn(C)c2=O)c(OC)c1)C(CC(=O)O)c1ccc(Cl)cc1 (configuration not stated)
5 to 7	3000 (≈ 1590 µg/mL)	–	CCCN(Cc1ccc(OCCn2c(=O)ccn(C)c2=O)c(OC)c1)C(CC(=O)O)c1ccc(Cl)cc1 (configuration not stated)
5 to 7	3000 (≈ 1460 µg/mL)	–	Cc1cc(CN(C)C(CC(=O)O)c2ccc(Cl)cc2)ccc1OCCn1c(=O)ccn(C)c1=O (configuration not stated)
5 to 7	3000	–	Cc1cc(CN(Cc2ccc(F)cc2)C(CC(=O)O)c2ccc(Cl)cc2)ccc1OCCN1C(=O)CCC1=O.Cl (configuration not stated)
5 to 7	3000 (≈ 1650 µg/mL)	–	COc1cc(CN(CC(C)C)C(CC(=O)O)c2ccc3c(c2)CCO3)ccc1OCCn1c(=O)ccn(C)c1=O (configuration not stated)
5 to 7	3000 (≈ 1630 µg/mL)	–	COc1cc(CN(CC(C)C)C(CC(=O)O)c2ccc(Cl)cc2)ccc1OCCn1c(=O)ccn(C)c1=O (configuration not stated)
5 to 7	3000 (≈ 1500 µg/mL)	–	Cc1cc(CN(CC2CC2)C(CC(=O)O)c2ccc(Cl)cc2)ccc1OCCN1C(=O)CCC1=O (configuration not stated)
5 to 7	3000 (≈ 1630 µg/mL)	–	COc1cc(CN(CC(C)C)[C@@H](CC(=O)O)c2ccc(Cl)cc2)ccc1OCCn1c(=O)ccn(C)c1=O
